Literature values, collected in patent US6447820B1, “Pharmaceutical composition for the prevention and treatment of scar tissue” (priority 2001, dated 2002).

Tests used:
[1] = mice
[2] = mice; remark: listed apart in the source
[3] = X-ray irradiated recipient mice
[4] = mice; remark: listed apart in the source
[5] = guinea pigs
[6] = mice; remark: listed apart in the source

## CC1(C)OC(=O)C=C[C@]2(C)[C@H]3CC[C@@]4(C)[C@H](c5ccoc5)OC(=O)[C@H]5O[C@]54[C@]3(C)C(=O)C[C@@H]12 [obacunone]
[1]
  sleeping time induced by alpha-chloralose-urethane: shorten

## COc1ccc2c(c1O)-c1c(O)c(OC)cc3c1[C@H](C2)[N+](C)(C)CC3 [magnoflorine]
[2]
  local GvH reactions: suppress

## COc1cc2c(cc1O)C[C@H]1c3cc(O)c(OC)cc3CC[N@@+]1(C)C2 [phellodendrine]
[2]
  local GvH reactions: suppress
  local semisyngeneic GvH reactions: suppressed
[3]
  systemic allogeneic GvH reactions: suppressed
[4]
  effector phase of SRBC-induced delayed type hypersensitivity: did not suppress
  induction phase of SRBC-induced delayed type hypersensitivity: suppressed
[5]
  effector phase of tuberculin-induced delayed type hypersensitivity: did not suppress
  induction phase of tuberculin-induced delayed type hypersensitivity: suppressed
[6]
  antibody production to SRBC: did not affect

## CC1(C)O[C@H]2CC(=O)OC[C@]23[C@H]2CC[C@@]4(C)[C@H](c5ccoc5)OC(=O)[C@H]5O[C@]54[C@]2(C)C(=O)C[C@@H]13 [limonin]
[1]
  sleeping time induced by alpha-chloralose-urethane: shorten
